Reference: publication PMC6199744, “Development of Chemical Proteomics for the Folateome and Analysis of the Kinetoplastid Folateome” (ACS Infectious Diseases, 2018)
Where two headings read alike, the source gives them in different places.

Columns and labels:
Assay type in all cases: binding
[1] = biological target: T1, HeLa cell extract proteins (Homo sapiens, UniProt Q99683)
T1 construct: endogenous in cells; host or cells: HeLa cell extract
T1 sequence (Q99683 1-1374): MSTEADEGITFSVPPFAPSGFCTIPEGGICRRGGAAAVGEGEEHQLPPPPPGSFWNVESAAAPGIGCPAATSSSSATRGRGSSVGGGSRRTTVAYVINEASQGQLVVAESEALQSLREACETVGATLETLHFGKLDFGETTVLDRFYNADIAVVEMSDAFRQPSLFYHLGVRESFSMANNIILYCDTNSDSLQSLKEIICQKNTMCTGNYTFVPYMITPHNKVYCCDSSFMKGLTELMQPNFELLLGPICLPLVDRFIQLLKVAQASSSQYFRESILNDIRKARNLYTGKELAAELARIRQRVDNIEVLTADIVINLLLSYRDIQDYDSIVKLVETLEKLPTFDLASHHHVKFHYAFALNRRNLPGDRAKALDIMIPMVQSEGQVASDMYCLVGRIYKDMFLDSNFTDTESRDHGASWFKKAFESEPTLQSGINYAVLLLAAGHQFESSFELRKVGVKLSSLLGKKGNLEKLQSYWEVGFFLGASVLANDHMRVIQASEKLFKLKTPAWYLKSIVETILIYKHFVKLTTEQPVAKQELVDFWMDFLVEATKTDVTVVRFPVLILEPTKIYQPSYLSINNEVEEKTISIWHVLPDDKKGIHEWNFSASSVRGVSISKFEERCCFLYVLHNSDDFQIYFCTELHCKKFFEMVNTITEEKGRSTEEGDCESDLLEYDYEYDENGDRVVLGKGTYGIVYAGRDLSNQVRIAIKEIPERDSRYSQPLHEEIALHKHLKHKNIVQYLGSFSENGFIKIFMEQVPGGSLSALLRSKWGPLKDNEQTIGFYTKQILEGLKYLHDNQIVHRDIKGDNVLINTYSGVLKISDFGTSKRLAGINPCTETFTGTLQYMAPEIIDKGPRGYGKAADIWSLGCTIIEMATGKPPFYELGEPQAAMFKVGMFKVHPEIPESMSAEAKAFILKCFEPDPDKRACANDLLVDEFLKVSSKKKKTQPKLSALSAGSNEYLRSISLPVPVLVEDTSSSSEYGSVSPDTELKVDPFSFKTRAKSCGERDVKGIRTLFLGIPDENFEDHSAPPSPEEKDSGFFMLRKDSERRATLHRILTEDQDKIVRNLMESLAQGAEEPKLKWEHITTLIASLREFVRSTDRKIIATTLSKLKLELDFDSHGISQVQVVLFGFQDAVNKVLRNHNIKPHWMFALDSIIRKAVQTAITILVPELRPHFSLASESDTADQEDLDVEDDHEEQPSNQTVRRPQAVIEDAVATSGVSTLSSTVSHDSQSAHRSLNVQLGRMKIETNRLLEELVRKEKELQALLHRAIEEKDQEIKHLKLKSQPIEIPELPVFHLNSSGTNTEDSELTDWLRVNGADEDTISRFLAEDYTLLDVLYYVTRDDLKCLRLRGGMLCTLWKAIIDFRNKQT

[2] = biological target: T2, HeLa cell extract proteins (Homo sapiens, UniProt P42345)
T2 construct: endogenous in cells; host or cells: HeLa cell extract

[3] = biological target: T3, HeLa cell extract proteins (Homo sapiens, UniProt P20618)
T3 construct: endogenous in cells; host or cells: HeLa cell extract
T3 sequence (P20618 29-241): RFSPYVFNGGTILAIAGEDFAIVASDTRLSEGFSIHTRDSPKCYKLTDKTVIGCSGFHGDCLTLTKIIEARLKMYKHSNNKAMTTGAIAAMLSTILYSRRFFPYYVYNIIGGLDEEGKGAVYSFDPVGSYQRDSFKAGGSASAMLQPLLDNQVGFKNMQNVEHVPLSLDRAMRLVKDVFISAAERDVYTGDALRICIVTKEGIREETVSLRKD

[4] = biological target: T4, HeLa cell extract proteins (Homo sapiens, UniProt P04843)
T4 construct: endogenous in cells; host or cells: HeLa cell extract
T4 sequence (P04843 24-607): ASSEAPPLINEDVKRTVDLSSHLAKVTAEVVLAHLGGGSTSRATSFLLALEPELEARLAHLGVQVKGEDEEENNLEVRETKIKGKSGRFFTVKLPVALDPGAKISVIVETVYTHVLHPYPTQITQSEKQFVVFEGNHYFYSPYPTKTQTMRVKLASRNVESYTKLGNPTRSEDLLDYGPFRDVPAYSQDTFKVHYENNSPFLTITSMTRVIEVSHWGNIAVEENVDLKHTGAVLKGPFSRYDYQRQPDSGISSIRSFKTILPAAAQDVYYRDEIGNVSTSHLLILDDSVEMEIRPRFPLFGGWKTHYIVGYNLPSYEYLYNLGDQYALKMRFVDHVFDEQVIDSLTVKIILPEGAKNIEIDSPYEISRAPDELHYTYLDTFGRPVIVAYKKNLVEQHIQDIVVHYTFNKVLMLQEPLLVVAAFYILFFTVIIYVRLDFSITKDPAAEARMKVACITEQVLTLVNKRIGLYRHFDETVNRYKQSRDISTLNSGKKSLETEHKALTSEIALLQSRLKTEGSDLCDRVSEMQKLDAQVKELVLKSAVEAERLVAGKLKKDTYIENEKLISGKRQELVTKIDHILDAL

[5] = biological target: T5, HeLa cell extract proteins (Homo sapiens, UniProt P13639)
T5 construct: endogenous in cells; host or cells: HeLa cell extract

[6] = biological target: T6, HeLa cell extract proteins (Homo sapiens, UniProt P48047)
T6 construct: endogenous in cells; host or cells: HeLa cell extract
T6 sequence (P48047 24-213): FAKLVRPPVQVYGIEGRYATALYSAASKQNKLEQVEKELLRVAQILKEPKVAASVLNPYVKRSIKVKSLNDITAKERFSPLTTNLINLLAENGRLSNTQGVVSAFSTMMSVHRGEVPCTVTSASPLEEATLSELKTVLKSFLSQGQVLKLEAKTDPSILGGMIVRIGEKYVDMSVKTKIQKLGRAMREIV

[7] = HeLa, protein MAP3K5 (MITOGEN-ACTIVATED PROTEIN KINASE KINASE KINASE 5)
[8] = HeLa, protein EEF2 (ELONGATION FACTOR 2.)

SMILES | fold changes relative to vehicle control [1, 7] | fold changes relative to vehicle control ([2]; HeLa, captured protein mTOR) | fold changes relative to vehicle control ([3]; HeLa, protein PSMB1) | fold changes relative to vehicle control ([4]; HeLa, protein RPN1) | fold changes relative to vehicle control ([5]; HeLa, protein EEF2) | fold changes relative to vehicle control ([6]; HeLa, captured protein ATP5O) | fold changes relative to vehicle control ([1]; HeLa, protein MAP3K5) | fold changes relative to vehicle control ([2]; captured protein mTOR, HeLa) | fold changes relative to vehicle control ([3]; protein PSMB1, HeLa) | fold changes relative to vehicle control ([4]; protein RPN1, HeLa) | fold changes relative to vehicle control ([6]; protein ATP5O, HeLa) | also measured
Nc1nc2c(c(=O)[nH]1)N(C=O)C(CNc1ccc(C(=O)N[C@@H](CCC(=O)O)C(=O)O)cc1)CN2 (stereo partly drawn) [LEU, leucovorin] | 1.13 | 1.05 | 0.96 | 0.88 | 1.06 | 1.01 | – | – | – | – | – | –
NCCCNc1ccc(C(=O)NC(CCC(=O)O)C(=O)O)cc1 (stereo not drawn) [compound 7] | 1.09 | 1.2 | 0.86 | 0.94 | 1.04 | 1.02 | – | – | – | – | – | –
CCCCCCOc1cccc(Cc2cnc(N)nc2N)c1 [compound 2] | – | – | – | – | – | – | 1.14 | 1.1 | 1.28 | 1.28 | 0.98 | fold changes relative to vehicle control [5, 8]: 2.22 fold
CCCCCCOc1ccc(Cc2cnc(N)nc2N)cc1 [compound 1] | – | – | – | – | – | – | 1.03 | 0.89 | 1.05 | 1.09 | 0.98 | fold changes relative to vehicle control [5, 8]: 1.33 fold
Nc1nc2cccc(-c3ccccc3)c2n1Cc1ccc(Cl)c(Cl)c1 [compound 3] | – | – | – | – | – | – | 1.1 | 1.01 | 0.92 | 1.02 | 0.9 | fold changes relative to vehicle control ([5]; HeLa, protein EEF2 ([…] 2.)): 0.97 fold
NCCOCCOCC(=O)Nc1nc2ncc(CNc3ccc(C(=O)NC(CCC(=O)O)C(=O)O)cc3)nc2c(=O)[nH]1 (stereo not drawn) [compound 6] | 1.12 | 1.15 | 0.94 | 0.96 | 1.35 | 0.97 | – | – | – | – | – | –
Nc1nc2[nH]cc(CCc3ccc(C(=O)N[C@@H](CCC(=O)O)C(=O)O)cc3)c2c(=O)[nH]1 [PTX, pemetrexed] | – | – | – | – | – | – | – | – | – | – | – | fold changes relative to vehicle control [1]: 1.18; fold changes relative to vehicle control [2]: 0.99; fold changes relative to vehicle control [3]: 0.78; fold changes relative to vehicle control [4]: 0.96; fold changes relative to vehicle control [5]: 1.2; fold changes relative to vehicle control [6]: 1.01
